From patent US8937095B2, “Anticancer compounds” (Boehringer Ingelheim International GmbH, priority 2012, dated 2015)

Assays:
Calu6 cells = assay: Proliferation assay (CyQuant Direct), Calu6 cells; assay type: cell-based; details: Homo sapiens, Calu-6; 72 hour incubation; read-out: GI50 antiproliferative effect on Calu6 cells
Experimental: (§1) Experimental Procedure of Proliferation Assay:
(§2) A375 and Calu6 cells are grown in RPMI1640, 10% FBS, in a humidified atmosphere of 5% CO2 at 37° C. Cells are seeded into flat bottom 96 well microtiter plates and incubated in a humidified atmosphere of 5% CO2 at 37° C. for 24 hours. Compounds are added, at the same time, a “time zero” untreated cell plate is stained and measured after 1 h. Compounds are serially diluted 5-fold from the highest test concentration (10 μM) and assayed over 8 concentrations in duplicates. The concentration of the solvent DMSO in the final culture is 0.1%. After a 72 hour incubation period, cells are stained with fluorescent nuclear dye to allow visualization of nuclei (CyQuant Direct Cell Proliferation Assay, Invitrogen Cat. No. C35012). Total fluorescence intensity of each well is measured using an Envision platform with excitation at 480 nm, emission detection at 535 nm. The assay signal correlates to the number of nuclei and thus, by definition, to the number of cells in the culture well (“cell count”).
(§3) The cell proliferation assay output for control cells after 72 hours of incubation, corresponding to 100% cell proliferation, is taken as the reference cell count for all subsequent calculations. Relative cell proliferation in compound-treated cultures (signal percent of control, “POC”) is calculated according to the following formula: POC(t=72 h)=100*fluorescence(compound wells)/fluorescence(control wells)
(§4) In addition, for each compound-treated culture, the cell count after incubation for 72 hours (POC(t=72h)) is related to the cell count at the start of treatment (POC(t=0 h)): POC(t=0 h)=100*fluorescence at t=0(control wells)/fluorescence at t=72 h(control wells)
(§5) The concentration-response curves were calculated using the dose-response package (drc versio 2.0-1 http://cran.rproject.org/web/packages/drc/index.html) from R (version 2.10.1 http://www.r-project.org/). […]
(§6) Relative cell growth inhibition (CGI %) in compound-treated cultures is calculated according to the following formula: […]

A375 cells = assay: Proliferation assay (CyQuant Direct), A375 cells; assay type: cell-based; details: Homo sapiens, A-375; 72 hour incubation; read-out: GI50 antiproliferative effect on A375 cells
Experimental: as §1, §2, §3, §4, §5, §6

CCNC(=O)C#Cc1ccc2c(c1)NC(=O)/C2=C(\Nc1ccc(CN(C)C)cc1)c1ccccc1 [Compound 6, 3-[3-[[4-(dimethylaminomethyl)anilino]-phenylmethylidene]-2-oxo-1H-indol-6-yl]-N-ethylprop-2-ynamide]
GI50 (Calu6 cells): 7.66 nM | GI50 (A375 cells): 2.7 nM

CCNC(=O)C#Cc1ccc2c(c1)NC(=O)/C2=C(\Nc1ccc(CNC)cc1)c1ccccc1 [Compound 26, 3-[3-[[4-(methylaminomethyl)anilino]-phenylmethylidene]-2-oxo-1H-indol-6-yl]-N-ethylprop-2-ynamide]
GI50 (Calu6 cells): 7.82 nM | GI50 (A375 cells): 3.37 nM

CCNC(=O)C#Cc1ccc2c(c1)NC(=O)/C2=C(\Nc1ccc(C[N+](C)(C)[O-])cc1)c1ccccc1 [Compound 27, 3-[3-[[4-(dimethyloxidoaminomethyl)anilino]-phenylmethylidene]-2-oxo-1H-indol-6-yl]-N-ethylprop-2-ynamide]
GI50 (Calu6 cells): 11.3 nM | GI50 (A375 cells): 17.3 nM
